Measurements as given in patent US8410085B2, “Phospholipid compositions and uses thereof” (Baylor College of Medicine, priority 2007, dated 2013).
Values joined by “and” are separate entries in the source; they are usually repeats but may differ in a detail not shown here. Identical values can stand only once. “Also recorded” adds a separate entry of the source.

Key:
PPARδ = PPARδ (Homo sapiens, UniProt Q03181); assay: nuclear receptor cotransfection (RE-tk-luc), HeLa cells; conditions: 100 μM
RXRα = RXRα (Homo sapiens, UniProt P19793); assay: as above; conditions: 100 μM
human CAR = human CAR (Homo sapiens, UniProt Q14994); assay: as above; conditions: 100 μM
LRH-1 target Cyp8B1 = assay: hCYP8B1 expression by Q-PCR in C3A HepG2 cells
wild type male mice = assay: bile acids, serum glucose and NEFA in wild type mice after oral gavage; assay type: in vivo, mouse; conditions: 100 mg/kg oral
LRH-1 [1] = target: T1, LRH-1 (Homo sapiens, UniProt O00482); assay: LRH-1 Luc reporter in C3A HepG2 cells (endogenous hLRH-1); conditions: C3A/HepG2 cells or cells with non-target control siRNAs
T1 sequence (O00482 whole entry): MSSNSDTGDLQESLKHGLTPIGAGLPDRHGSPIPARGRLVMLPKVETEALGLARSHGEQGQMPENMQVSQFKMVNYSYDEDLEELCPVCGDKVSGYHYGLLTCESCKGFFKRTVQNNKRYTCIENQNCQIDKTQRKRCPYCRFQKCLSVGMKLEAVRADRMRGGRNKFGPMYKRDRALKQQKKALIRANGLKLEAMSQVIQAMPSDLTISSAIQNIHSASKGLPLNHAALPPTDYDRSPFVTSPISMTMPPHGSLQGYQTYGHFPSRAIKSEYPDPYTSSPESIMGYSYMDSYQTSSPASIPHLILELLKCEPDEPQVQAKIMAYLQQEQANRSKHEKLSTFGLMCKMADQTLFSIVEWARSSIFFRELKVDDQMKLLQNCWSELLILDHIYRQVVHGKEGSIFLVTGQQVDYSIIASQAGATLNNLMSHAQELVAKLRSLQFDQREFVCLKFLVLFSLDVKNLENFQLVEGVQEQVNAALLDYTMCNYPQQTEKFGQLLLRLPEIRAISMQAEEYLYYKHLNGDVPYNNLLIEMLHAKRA

PPARγ = PPARγ (Homo sapiens, UniProt P37231); assay: nuclear receptor cotransfection (RE-tk-luc), HeLa cells; conditions: 100 μM
LRH-1 [2] = target: T1, LRH-1; assay: Oct4 proximal promoter (Oct4-PP Luc) activation by hLRH-1 in COS-1 cells
ERα = ERα (Homo sapiens, UniProt P03372); assay: nuclear receptor cotransfection (RE-tk-luc), HeLa cells; conditions: 100 μM
ERα, sequence (P03372 whole entry, species assumed): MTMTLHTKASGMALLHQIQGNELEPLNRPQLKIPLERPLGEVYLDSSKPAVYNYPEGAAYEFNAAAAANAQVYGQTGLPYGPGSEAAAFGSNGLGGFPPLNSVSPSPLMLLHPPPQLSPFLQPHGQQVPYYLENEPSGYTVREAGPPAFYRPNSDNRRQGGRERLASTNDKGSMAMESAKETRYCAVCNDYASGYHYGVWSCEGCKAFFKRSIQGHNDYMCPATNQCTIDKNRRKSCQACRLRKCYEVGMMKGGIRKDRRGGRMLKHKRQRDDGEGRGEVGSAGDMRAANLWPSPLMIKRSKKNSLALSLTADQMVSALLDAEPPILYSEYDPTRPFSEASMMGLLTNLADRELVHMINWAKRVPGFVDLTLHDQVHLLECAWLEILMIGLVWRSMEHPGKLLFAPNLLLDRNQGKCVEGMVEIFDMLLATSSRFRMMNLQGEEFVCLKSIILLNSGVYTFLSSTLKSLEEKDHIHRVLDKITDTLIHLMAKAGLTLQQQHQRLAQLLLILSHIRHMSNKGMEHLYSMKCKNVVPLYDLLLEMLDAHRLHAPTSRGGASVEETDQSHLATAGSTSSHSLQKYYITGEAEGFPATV

RARβ = RARβ (Homo sapiens, UniProt P10826); assay: as above; conditions: 100 μM
RARβ, sequence (P10826 whole entry, species assumed): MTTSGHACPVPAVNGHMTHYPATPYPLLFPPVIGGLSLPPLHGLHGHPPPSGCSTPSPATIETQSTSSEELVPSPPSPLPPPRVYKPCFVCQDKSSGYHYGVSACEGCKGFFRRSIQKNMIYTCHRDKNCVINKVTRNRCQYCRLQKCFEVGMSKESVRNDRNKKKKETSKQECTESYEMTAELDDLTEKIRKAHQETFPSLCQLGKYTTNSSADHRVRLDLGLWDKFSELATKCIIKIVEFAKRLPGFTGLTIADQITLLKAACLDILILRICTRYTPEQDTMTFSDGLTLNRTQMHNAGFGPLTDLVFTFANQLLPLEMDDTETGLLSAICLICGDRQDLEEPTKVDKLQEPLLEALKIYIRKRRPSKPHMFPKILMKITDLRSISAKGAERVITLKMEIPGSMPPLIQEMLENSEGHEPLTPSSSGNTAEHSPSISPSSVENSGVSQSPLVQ

[3] = system: hepatic expression of Cyp7A1, Cyp8B1, mSR-BI, SHP; assay: hepatic gene expression (Q-PCR) in wild type mice after oral gavage; assay type: in vivo, mouse; conditions: 100 mg/kg oral, five times over three days
Text: (§1) Total liver RNA was isolated and prepared for the cDNA. […] Total liver RNA was isolated and prepared for cDNA.

LXRα = LXRα (Homo sapiens, UniProt Q13133); assay: nuclear receptor cotransfection (RE-tk-luc), HeLa cells; conditions: 100 μM
LXRα, sequence (Q13133 whole entry): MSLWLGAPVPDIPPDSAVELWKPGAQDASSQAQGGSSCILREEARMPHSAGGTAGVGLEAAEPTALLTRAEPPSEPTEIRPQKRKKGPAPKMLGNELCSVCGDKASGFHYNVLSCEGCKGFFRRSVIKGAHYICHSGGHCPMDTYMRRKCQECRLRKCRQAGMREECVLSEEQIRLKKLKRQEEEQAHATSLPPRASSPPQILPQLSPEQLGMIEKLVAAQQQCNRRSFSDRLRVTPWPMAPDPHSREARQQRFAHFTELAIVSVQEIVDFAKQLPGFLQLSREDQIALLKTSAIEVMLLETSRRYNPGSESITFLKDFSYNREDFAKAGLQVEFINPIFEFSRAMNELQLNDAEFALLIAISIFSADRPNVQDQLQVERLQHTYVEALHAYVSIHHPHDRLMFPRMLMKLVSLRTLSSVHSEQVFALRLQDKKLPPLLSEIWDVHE

SF-1 = SF-1 (Homo sapiens, UniProt Q13285); assay: SF-1 transactivation, reporter cotransfection in HeLa cells; conditions: 100 μM
LRH-1 [4] = target: T1, LRH-1; assay: human LRH-1 transactivation, HeLa cotransfection with LRH-1/SF-1 response element luciferase reporter; assay type: cell-based; design: expressed in transfected cells; host or cells: HeLa (A1, A3); conditions: HeLa cells
Experimental: Controls (vector only and no lipid) are as indicated. […] Cells were treated with 100 μM of the indicated PCs and luciferase expression (RLU, relative light units) was normalized using an internal β-galactosidase control. vec, empty vector; −, ethanol solvent control.
HeLa cells were transfected with an hLRH-1 expression vector along with mSHP1080-Luc reporter. […] Oct4-PPmut Luc is identical to Oct4-PP Luc except for the insertion of point mutations in the DR0 element. […] HeLa cells were cotransfected with various nuclear receptors and the reporter plasmid (RE-tk-luc). […] Data are expressed for each reporter as fold activation of normalized luciferase activity relative to veh-treated cells.
A number of different phosphatidylcholine (PC) species were screened for effects on human LRH-1 transactivation in HeLa cell cotransfections with a synthetic luciferase reporter containing multiple copies of an LRH-1/SF-1 response element.

FXR = FXR (Homo sapiens, UniProt Q96RI1); assay: nuclear receptor cotransfection (RE-tk-luc), HeLa cells; conditions: 100 μM
PPARα = PPARα (Homo sapiens, UniProt Q07869); assay: as above; conditions: 100 μM
mouse LRH-1 = mouse LRH-1 (Mus musculus, UniProt P45448); assay: mouse LRH-1 transactivation, reporter cotransfection
mouse CAR = mouse CAR (Mus musculus, UniProt O35627); assay: nuclear receptor cotransfection (RE-tk-luc), HeLa cells; conditions: 100 μM
mouse CAR, sequence (O35627 whole entry, the tested form may be a part): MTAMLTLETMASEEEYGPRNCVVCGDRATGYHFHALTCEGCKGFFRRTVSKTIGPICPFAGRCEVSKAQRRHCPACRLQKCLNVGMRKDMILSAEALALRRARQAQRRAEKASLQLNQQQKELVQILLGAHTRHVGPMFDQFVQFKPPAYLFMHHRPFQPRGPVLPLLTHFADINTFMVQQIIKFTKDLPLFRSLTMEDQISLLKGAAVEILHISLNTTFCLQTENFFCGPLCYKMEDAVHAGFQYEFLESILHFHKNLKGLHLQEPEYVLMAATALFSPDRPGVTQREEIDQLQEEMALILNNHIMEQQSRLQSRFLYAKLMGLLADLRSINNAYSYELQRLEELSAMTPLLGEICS

GST-hLRH-1 LBD / SRC-3 = GST-hLRH-1 LBD / SRC-3 (Homo sapiens, UniProt O00482); assay: GST pulldown, GST-hLRH-1 LBD with in vitro translated 35S-labeled SRC-3
GST-hLRH-1 LBD / SRC-3, sequence (O00482 300-539 limits assumed): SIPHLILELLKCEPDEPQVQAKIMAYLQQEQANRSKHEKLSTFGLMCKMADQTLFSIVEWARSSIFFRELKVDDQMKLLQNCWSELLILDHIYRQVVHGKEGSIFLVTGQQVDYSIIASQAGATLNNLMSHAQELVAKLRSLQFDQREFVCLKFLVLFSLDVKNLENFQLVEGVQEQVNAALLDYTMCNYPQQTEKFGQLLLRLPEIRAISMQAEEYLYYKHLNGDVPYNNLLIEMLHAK
GST-hLRH-1 LBD / SRC-3, sequence (Q9Y6Q9 whole entry partner, the tested form may be a part): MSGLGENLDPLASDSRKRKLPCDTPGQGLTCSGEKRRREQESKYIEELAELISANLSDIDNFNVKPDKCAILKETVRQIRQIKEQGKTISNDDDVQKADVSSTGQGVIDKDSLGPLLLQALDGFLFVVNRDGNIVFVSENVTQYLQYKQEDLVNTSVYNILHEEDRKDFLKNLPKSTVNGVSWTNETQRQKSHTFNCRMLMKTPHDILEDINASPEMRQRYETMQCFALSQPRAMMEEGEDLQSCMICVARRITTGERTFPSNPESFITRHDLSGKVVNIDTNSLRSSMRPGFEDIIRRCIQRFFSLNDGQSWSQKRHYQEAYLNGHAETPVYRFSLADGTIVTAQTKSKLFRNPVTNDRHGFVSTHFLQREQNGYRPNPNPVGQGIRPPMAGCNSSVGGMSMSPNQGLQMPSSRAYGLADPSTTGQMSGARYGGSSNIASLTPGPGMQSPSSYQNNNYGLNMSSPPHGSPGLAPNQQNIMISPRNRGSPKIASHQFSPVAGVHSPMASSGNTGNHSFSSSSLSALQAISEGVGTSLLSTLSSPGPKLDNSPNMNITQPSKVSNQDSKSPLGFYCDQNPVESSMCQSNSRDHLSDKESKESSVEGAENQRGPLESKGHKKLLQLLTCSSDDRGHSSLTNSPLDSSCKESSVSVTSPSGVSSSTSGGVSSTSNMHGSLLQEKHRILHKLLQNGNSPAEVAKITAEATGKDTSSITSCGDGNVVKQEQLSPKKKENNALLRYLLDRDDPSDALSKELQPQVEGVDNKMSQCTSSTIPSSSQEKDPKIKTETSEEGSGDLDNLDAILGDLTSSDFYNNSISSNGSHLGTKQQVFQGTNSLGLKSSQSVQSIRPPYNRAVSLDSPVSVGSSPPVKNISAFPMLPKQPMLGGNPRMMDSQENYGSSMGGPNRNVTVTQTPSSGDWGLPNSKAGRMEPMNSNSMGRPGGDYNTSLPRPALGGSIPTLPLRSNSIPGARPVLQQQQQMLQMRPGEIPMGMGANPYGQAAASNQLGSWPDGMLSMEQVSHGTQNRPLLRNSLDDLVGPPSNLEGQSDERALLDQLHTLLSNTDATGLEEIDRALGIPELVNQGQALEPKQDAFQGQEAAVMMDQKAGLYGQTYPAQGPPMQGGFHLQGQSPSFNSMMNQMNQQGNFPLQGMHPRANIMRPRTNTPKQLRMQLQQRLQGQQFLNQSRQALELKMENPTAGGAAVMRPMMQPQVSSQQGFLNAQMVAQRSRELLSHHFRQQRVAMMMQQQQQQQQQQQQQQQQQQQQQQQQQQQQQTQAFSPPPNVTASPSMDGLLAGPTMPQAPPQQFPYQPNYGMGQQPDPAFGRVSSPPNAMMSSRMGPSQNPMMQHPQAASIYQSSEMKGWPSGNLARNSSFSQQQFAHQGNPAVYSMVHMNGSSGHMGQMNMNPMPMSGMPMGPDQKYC

human PXR = human PXR (Homo sapiens, UniProt O75469); assay: nuclear receptor cotransfection (RE-tk-luc), HeLa cells; conditions: 100 μM
human PXR, sequence (O75469 whole entry): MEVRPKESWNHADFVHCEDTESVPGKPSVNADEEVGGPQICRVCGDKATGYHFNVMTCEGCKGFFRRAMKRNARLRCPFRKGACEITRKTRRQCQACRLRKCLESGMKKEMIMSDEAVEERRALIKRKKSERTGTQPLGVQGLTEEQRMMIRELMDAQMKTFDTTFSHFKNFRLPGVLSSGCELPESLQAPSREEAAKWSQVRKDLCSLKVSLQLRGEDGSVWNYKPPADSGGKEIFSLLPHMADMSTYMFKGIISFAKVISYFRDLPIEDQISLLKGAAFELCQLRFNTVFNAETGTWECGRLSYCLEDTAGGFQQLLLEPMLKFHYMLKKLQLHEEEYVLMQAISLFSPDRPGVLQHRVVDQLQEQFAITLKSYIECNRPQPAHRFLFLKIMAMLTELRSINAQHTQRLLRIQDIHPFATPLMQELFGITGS

LRH-1 [5] = target: T1, LRH-1; assay: mouse SHP promoter (mSHP1080-Luc) activation by hLRH-1 in HeLa cells; conditions: 100 μM
LRH-1 [6] = target: T1, LRH-1; conditions: CV-1 and HEK293T cells, compared with HeLa
LRH-1 [7] = assay: hepatic gene expression in LRH-1 f/f mice infected with Ad-Cre; assay type: in vivo, mouse; conditions: 100 mg/kg oral, 100 mg/kg
Text: as §1

TRβ = TRβ (Homo sapiens, UniProt P10828); assay: nuclear receptor cotransfection (RE-tk-luc), HeLa cells; conditions: 100 μM
[8] = target: hLRH-1 LBD / SRC-3 receptor interaction domain (Homo sapiens, UniProt O00482); assay: mammalian two-hybrid assay, VP16-hLRH1 LBD with Gal4-SRC3 RID in HeLa cells

PPARδ, sequence (Q03181 whole entry, species assumed): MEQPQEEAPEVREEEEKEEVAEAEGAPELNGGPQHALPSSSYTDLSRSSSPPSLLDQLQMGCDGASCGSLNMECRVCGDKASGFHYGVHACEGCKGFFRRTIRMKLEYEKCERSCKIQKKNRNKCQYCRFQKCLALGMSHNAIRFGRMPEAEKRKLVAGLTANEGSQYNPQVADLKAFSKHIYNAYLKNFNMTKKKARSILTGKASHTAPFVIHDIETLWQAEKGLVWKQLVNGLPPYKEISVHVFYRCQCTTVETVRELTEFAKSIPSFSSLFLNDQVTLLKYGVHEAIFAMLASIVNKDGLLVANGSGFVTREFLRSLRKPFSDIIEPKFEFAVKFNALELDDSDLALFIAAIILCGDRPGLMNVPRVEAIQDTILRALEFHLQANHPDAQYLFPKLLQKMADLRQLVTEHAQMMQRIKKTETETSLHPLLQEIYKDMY

CCCCCCCCCCC(=O)OCC(COP(=O)([O-])OCC[N+](C)(C)C)OC(=O)CCCCCCCCCC (stereo not drawn) [DUPC, diundecanoylphosphatidylcholine]
activation or inhibition of PPARδ (PPARδ): did not activate or inhibit
activation or inhibition of RXRα (RXRα): did not activate or inhibit
activation or inhibition of human CAR (human CAR): did not activate or inhibit
expression of Cyp8B1 (LRH-1 target Cyp8B1; C3A/HepG2 cells or cells with non-target control siRNAs): modestly but significantly induced
Cyp8B1 response when LRH-1 expression is knocked down (LRH-1 target Cyp8B1; siRNA hLRH-1): lost
liver bile acids (wild type male mice): somewhat lower
serum bile acid levels (wild type male mice): substantially elevated
serum free fatty acids (wild type male mice): decreased levels
serum glucose levels (wild type male mice): decreased serum glucose levels
total bile acid pool (wild type male mice): significant increase
LRH-1 Luc luciferase activity (LRH-1 [1]): increased luciferase
activation or inhibition of PPARγ (PPARγ): did not activate or inhibit
response with the Oct4 promoter (LRH-1 [2]; COS-1 cells, Oct4-PP Luc): induced a similar response
activation of Oct4-PPmut Luc (LRH-1 [2]; point mutations in the DR0 element): eliminates activation
activation or inhibition of ERα (ERα): did not activate or inhibit
activation or inhibition of RARβ (RARβ): did not activate or inhibit
hepatic expression of Cyp7A1 [3]: significantly induced
hepatic expression of Cyp8B1 [3]: significantly induced
hepatic expression of SHP [3]: repressed
hepatic expression of mSR-BI [3]: significantly induced
activation or inhibition of LXRα (LXRα): did not activate or inhibit
SF-1 activation (SF-1): activate SF-1
LRH-1 transactivation (luciferase) (LRH-1 [4]; 100 μM): responses
EC50 (LRH-1 [4]; reporter gene, dose response 1-250 μM, read-out: EC50 for activation of hLRH-1): ~60 µM and 57 µM
activation or inhibition of FXR (FXR): did not activate or inhibit
activation or inhibition of PPARα (PPARα): did not activate or inhibit
mouse LRH-1 response versus human LRH-1 (mouse LRH-1): essentially equivalent responses
activation or inhibition of mouse CAR (mouse CAR): did not activate or inhibit
interaction of GST-LRH1 with SRC-3 (GST-hLRH-1 LBD / SRC-3; GST pulldown, 100 μM): further increased
increase of SRC-3 binding (GST-hLRH-1 LBD / SRC-3; PhosphorImager quantitation): approximately 3 fold
activation or inhibition of human PXR (human PXR): did not activate or inhibit
increase of LRH-1 transactivation of the native mouse SHP promoter (LRH-1 [5]): approximately 2 fold
LRH-1 transactivation response (LRH-1 [6]): similar, but lesser responses
hepatic gene expression response when LRH-1 gene removed by Cre (LRH-1 [7]): not observed; also recorded: completely absent
activation or inhibition of TRβ (TRβ): did not activate or inhibit
interaction of hLRH-1 LBD with SRC-3 RID [8]: stimulated
